Test results taken from patent US20260055381A1, “PROTEIN, POLYNUCLEOTIDE, EXPRESSION VECTOR, TRANSFORMANT, PLASMALOGEN-CONTAINING COMPOSITION, AND METHOD FOR PRODUCING PLASMALOGEN” (INSTITUTE OF RHEOLOGICAL FUNCTION OF FOOD CO., LTD., priority 2022, published 2026).

Assay: Production of plasmalogen in suis plsA-transformed E. coli (phospholipid by HPLC-ELSD, aldehyde after acid hydrolysis)
Conditions: in aerobically grown E. coli
Protocol: After thawing the bacterial cells, the total weight of the cells was measured. After 1 mL of water was added to and mixed with the bacterial cells, 3.75 mL of chloroform/methanol (1:2, v/v) was added thereto, and the resulting mixture was mixed. The mixture was subjected to sonication for 10 minutes, and then left to stand at room temperature for 30 minutes. After adding 1.25 mL chloroform to the mixture, 1.25 mL water was added thereto. After performing centrifugation, the chloroform layer was transferred to a glass tube, and the remaining aqueous layer was subjected to re-extraction with 2 mL of chloroform. The resulting combined chloroform layer was dried under nitrogen gas, and resuspended in hexane/isopropanol (3:2, v/v) to a bacterial cell concentration of 120 mg/mL, followed by filtration through a 0.45-μm filter. After injecting 10 μL of the bacterial cell suspension into high-performance liquid chromatography (HPLC), detection was performed by an evaporative light-scattering detector (ELSD).
Lipid standard solutions with different concentrations were also detected by HPLC-ELSD. A calibration curve was prepared based on the peak area at each concentration, and the amount of phospholipids was calculated from the area ratio of the peak corresponding to phospholipids obtained from the E. coli with a retention time of 10 to 20 minutes. […]

**Q.** For “suis PlsA protein: PlsA protein of 1639 amino acids of SEQ ID NO:2, from B. longum suis subspecies”, which plasmalogen synthesis activity is on record?
**A.** shown to have a plasmalogen synthesis activity
